Numbered stars: 1 amine (or outer) side, 2 acyl side, 3 side chain; on linkers, the order of the positions; unused ones are H or OH. Square brackets hold non-standard residues; d marks the D form. Peptide text beside a SMILES is read from it. * marks the point of attachment. ξ: configuration not given here. X1 = CC(C)[C@@H](C(=O)[*:2])N(CCCCCCCCO[*:3])[*:1]; Desaminotyrosyl = O=C(CCc1ccc(O)cc1)*; Thr(3ξ) = CC(O)[C@H](N)C(=O)O
Columns and labels:
[1] = biological target: T1, Ribonucleoside-diphosphate reductase large subunit (Herpes simplex virus (type 1 / strain 17), UniProt P08543); test: Inhibitory activity against HSV-1 Ribonucleoside diphosphate reductase was determined; parameters: species or system Human alphaherpesvirus 1
T1 sequence (P08543 whole entry): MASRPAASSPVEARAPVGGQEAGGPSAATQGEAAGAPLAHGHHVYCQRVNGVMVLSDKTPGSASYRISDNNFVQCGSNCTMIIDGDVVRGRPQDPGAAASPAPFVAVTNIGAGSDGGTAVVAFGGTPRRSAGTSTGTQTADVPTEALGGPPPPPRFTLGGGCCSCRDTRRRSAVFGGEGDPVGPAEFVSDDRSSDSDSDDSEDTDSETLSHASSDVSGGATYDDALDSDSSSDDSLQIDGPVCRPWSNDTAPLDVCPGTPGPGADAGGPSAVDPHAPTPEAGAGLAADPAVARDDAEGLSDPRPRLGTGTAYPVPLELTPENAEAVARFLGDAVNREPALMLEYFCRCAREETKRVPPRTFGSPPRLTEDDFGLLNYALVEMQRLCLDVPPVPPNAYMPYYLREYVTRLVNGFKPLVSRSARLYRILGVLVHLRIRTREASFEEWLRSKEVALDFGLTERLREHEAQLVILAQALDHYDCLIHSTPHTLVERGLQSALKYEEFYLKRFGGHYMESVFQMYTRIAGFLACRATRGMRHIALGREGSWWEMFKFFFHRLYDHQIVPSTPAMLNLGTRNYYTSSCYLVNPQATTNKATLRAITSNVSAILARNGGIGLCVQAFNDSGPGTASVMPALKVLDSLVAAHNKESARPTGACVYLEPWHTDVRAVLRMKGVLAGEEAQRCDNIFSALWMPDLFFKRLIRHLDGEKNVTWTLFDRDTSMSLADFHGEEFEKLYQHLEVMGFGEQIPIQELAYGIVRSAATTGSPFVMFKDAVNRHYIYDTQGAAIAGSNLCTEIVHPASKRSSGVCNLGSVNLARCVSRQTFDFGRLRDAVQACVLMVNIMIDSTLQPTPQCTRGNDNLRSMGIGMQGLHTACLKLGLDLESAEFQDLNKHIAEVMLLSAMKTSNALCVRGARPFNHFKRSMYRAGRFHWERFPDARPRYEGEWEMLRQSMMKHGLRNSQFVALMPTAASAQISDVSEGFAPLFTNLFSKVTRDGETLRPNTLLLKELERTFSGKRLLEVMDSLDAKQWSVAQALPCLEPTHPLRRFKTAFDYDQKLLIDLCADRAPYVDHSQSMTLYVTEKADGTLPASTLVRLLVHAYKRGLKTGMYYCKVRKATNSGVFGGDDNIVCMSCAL

[2] = biological target: T1, Ribonucleoside-diphosphate reductase large subunit; test: Inhibitory activity was determined against HSV-1 Ribonucleoside diphosphate reductase; parameters: species or system Human alphaherpesvirus 1
[3] = Relative inhibition compared to HSV-R2-(329-337) was determined; Inactive at 2 mM
[4] = Relative inhibition compared to HSV-R2-(329-337) was determined; Inactive at 1 mM

Molecule	IC50 [1] [µM]	IC50 [2] [µM]	Relative inhibition [3] [%]	Relative inhibition [4] [%]
COc1ccc(C[C@H](NC(C)=O)C(=O)N[C@@H](C)C(=O)NCC(=O)N[C@@H](C)C(=O)N[C@H](C(=O)N[C@H](C(=O)N[C@@H](CC(N)=O)C(=O)N[C@@H](CC(=O)O)C(=O)N[C@@H](CC(C)C)C(=O)O)C(C)C)C(C)C)cc1	60	–	–	–
COc1ccc(C[C@H](N)C(=O)N[C@@H](C)C(=O)NCC(=O)N[C@@H](C)C(=O)N[C@H](C(=O)N[C@H](C(=O)N[C@@H](CC(N)=O)C(=O)N[C@@H](CC(=O)O)C(=O)N[C@@H](CC(C)C)C(=O)O)C(C)C)C(C)C)cc1	60	–	–	–
CC(C)C[C@H](NC(=O)[C@H](CC(=O)O)NC(=O)[C@H](CC(N)=O)NC(=O)[C@@H](NC(=O)[C@@H](NC(=O)[C@H](C)NC(=O)CNC(=O)[C@H](C)NC(=O)[C@@H](N)Cc1ccc(O)cc1)C(C)C)C(C)C)C(N)=O	60	–	–	–
CSCC[C@H](NC(=O)[C@@H](NC(=O)[C@@H](N)Cc1ccc(O)cc1)[C@@H](C)O)C(=O)N[C@@H](CC(C)C)C(=O)N[C@H](C(=O)N[C@H](C(=O)N[C@@H](CC(=O)O)C(=O)N[C@@H](CC(=O)O)C(=O)N[C@@H](CC(C)C)C(=O)O)C(C)C)C(C)C	36	110	–	–
CC(C)C[C@H](NC(=O)[C@H](CC(=O)O)NC(=O)[C@H](CC(N)=O)NC(=O)[C@@H](NC(=O)[C@@H](NC(=O)[C@H](C)NC(=O)CNC(=O)[C@H](C)NC(=O)[C@H](Cc1ccc(O)cc1)NC(=O)[C@H](CO)NC(=O)[C@@H](NC(=O)[C@H](CO)NC(=O)[C@H](CCCN=C(N)N)NC(=O)[C@H](CS)NC(=O)[C@H](CCC(=O)O)NC(=O)[C@H](Cc1ccccc1)NC(=O)[C@H](Cc1ccccc1)NC(=O)[C@H](CC(=O)O)NC(=O)[C@@H](N)[C@@H](C)O)[C@@H](C)O)C(C)C)C(C)C)C(=O)O	55	15	–	–
CC(=O)N[C@H](C(=O)N[C@H](C(=O)N[C@@H](CC(N)=O)C(=O)N[C@@H](CC(=O)O)C(=O)N[C@@H](CC(C)C)C(=O)O)C(C)C)C(C)C	60	400	–	–
CC(=O)N[C@H](Cc1ccc(O)cc1)C(=O)N[C@@H](C)C(=O)NCC(=O)N[C@@H](C)C(=O)N[C@H](C(=O)N[C@H](C(=O)N[C@@H](CC(N)=O)C(=O)N[C@@H](CC(=O)O)C(=O)N[C@@H](CC(C)C)C(=O)O)C(C)C)C(C)C	60	–	–	–
CC(C)C[C@H](NC(=O)[C@H](CC(=O)O)NC(=O)[C@H](CC(N)=O)NC(=O)[C@@H](NC(=O)[C@@H](NC(=O)[C@H](C)NC(=O)CNC(=O)[C@H](C)NC(=O)[C@H](Cc1ccc(O)cc1)NC(=O)CCCCCCCN)C(C)C)C(C)C)C(=O)O	44	12	–	–
CC(=O)N[C@@H](Cc1ccc(O)cc1)C(=O)N[C@H](C)C(=O)NCC(=O)N[C@@H](C)C(=O)N[C@H](C(=O)N[C@H](C(=O)N[C@@H](CC(N)=O)C(=O)N[C@@H](CC(=O)O)C(=O)N[C@@H](CC(C)C)C(=O)O)C(C)C)C(C)C	60	–	–	–
CC(=O)N[C@@H](Cc1ccc(O)cc1)C(=O)N[C@@H](C)C(=O)NCC(=O)N[C@@H](C)C(=O)N[C@H](C(=O)N[C@H](C(=O)N[C@@H](CC(N)=O)C(=O)N[C@@H](CC(=O)O)C(=O)N[C@@H](CC(C)C)C(N)=O)C(C)C)C(C)C	60	–	–	–
CC(=O)N[C@@H](Cc1ccc(O)cc1)C(=O)N[C@@H](C)C(=O)NCC(=O)N[C@@H](C)C(=O)N[C@H](C(=O)N[C@H](C(=O)N[C@@H](CC(N)=O)C(=O)N[C@@H](CC(=O)O)C(=O)N[C@@H](CC(C)C)C(=O)O)C(C)C)C(C)C	60	–	–	–
CC(C)C[C@H](NC(=O)[C@H](CC(=O)O)NC(=O)[C@H](CC(N)=O)NC(=O)[C@@H](NC(=O)[C@@H](NC(=O)[C@H](C)NC(=O)CNC(=O)[C@H](C)NC(=O)CCc1ccc(O)cc1)C(C)C)C(C)C)C(=O)O (Desaminotyrosyl-AGAVVNDL-OH)	60	33	–	–
CC[C@H](C)[C@H](NC(=O)[C@@H](NC(=O)CNC(=O)[C@H](C)NC(=O)CCc1ccc(O)cc1)C(C)O)C(=O)N[C@@H](CC(N)=O)C(=O)N[C@@H](CC(=O)O)C(=O)N[C@@H](CC(C)C)C(=O)O (some centres not stated) (Desaminotyrosyl-AG[Thr(3ξ)]INDL-OH)	13	13	–	–
CC(C)C[C@H](NC(=O)[C@H](CC(=O)O)NC(=O)[C@@H](N)CC(N)=O)C(=O)O (H-Asn-Asp-Leu-OH)	–	–	0	–
CC(C)C[C@H](NC(=O)[C@H](CC(=O)O)NC(=O)[C@H](CC(N)=O)NC(=O)[C@@H](N)C(C)C)C(=O)O (H-VNDL-OH)	–	–	0	–
CC(C)C[C@H](NC(=O)[C@H](CC(=O)O)NC(=O)[C@H](CC(N)=O)NC(=O)[C@@H](NC(=O)[C@@H](NCCCCCCCCOC(=O)[C@@H](N)Cc1ccc(O)cc1)C(C)C)C(C)C)C(=O)O (H-[X1](Tyr)VNDL-OH)	63	63	–	–
Ac-YAGVVNDL-OH	60	–	–	–
Ac-YGAVVNDL-OH	60	–	–	–
H-AAGAVVNDL-OH	280	280	–	–
H-AGAVVNDL-OH	36	283	–	–
H-AVVNDL-OH	190	190	–	–
H-ECRSTSYAGAVVNDL-OH	60	42	–	–
H-FAGAVVNDL-OH	55	90	–	–
H-GAVVNDL-OH	225	225	–	–

Molecule	IC50 [1] [µM]	IC50 [2] [µM]	Relative inhibition [3] [%]	Relative inhibition [4] [%]
H-HAGAVVNDL-OH	55	323	–	–
H-KYAGAVVNDL-OH	55	–	–	–
H-LAGAVVNDL-OH	211	211	–	–
H-STSYAGAVVNDL-OH	60	29	–	–
H-YAGAAVNDL-OH	–	–	0	–
H-YAGAVANDL-OH	60	760	–	–
H-YAGAVINDL-OH	49	33	–	–
H-YAGAVV-OH	–	–	0	–
H-YAGAVVADL-OH	–	–	–	0
H-YAGAVVN-OH	–	–	0	–
H-YAGAVVNAL-OH	–	–	–	0
H-YAGAVVND-OH	–	–	0	–
H-YAGAVVNDA-OH	–	–	–	0
H-YAGAVVNDF-OH	–	–	–	0
H-YAGAVVNDI-OH	55	153	–	–
H-YAGAVVNDLK-OH	55	458	–	–
H-YAGAVVNDV-OH	55	846	–	–
H-YAGAVVNDY-OH	–	–	–	0
H-YAGPVVNDL-OH	44	–	–	–
H-YAGTVINDL-OH	60	–	–	–
H-YAGTVVNDL-OH	44	29	–	–
H-YAPAVVNDL-OH	44	37	–	–
H-YAVVNDL-OH	60	–	–	–
H-YGAVVNDL-OH	60	330	–	–
